Laboratory results: PubChem BioAssay AID624167 (Sanford-Burnham Center for Chemical Genomics, 2012)
pIC50: −log10 of the molar value. Calls of active or inactive are those of the source.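 The calls were made as follows: active = mean IC50 for reducing PEG3 promoter reporter signal at or below a set limit, with IC50 above the limit in both counter screens; inactive = the rest, including counter screen hits.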

Assays:
[1] = test system: PEG-3; assay: inhibition of PEG-3 promoter-driven reporter – cell-based, HeLa, luciferase, CREF/GAPDH counter-screen panel, dose response (AID 624167); settings: HeLa PEG-Prom luciferase reporter, overnight, CREF/GAPDH counter-screens
[2] = molecular target: PEG-3 (UniProt Q6IN02); assay: as above; settings: HeLa PEG-Prom luciferase reporter, overnight, CREF/GAPDH counter-screens, mean of runs
Sequence of PEG-3 (UniProt Q6IN02) (Q6IN02 whole entry, looked up): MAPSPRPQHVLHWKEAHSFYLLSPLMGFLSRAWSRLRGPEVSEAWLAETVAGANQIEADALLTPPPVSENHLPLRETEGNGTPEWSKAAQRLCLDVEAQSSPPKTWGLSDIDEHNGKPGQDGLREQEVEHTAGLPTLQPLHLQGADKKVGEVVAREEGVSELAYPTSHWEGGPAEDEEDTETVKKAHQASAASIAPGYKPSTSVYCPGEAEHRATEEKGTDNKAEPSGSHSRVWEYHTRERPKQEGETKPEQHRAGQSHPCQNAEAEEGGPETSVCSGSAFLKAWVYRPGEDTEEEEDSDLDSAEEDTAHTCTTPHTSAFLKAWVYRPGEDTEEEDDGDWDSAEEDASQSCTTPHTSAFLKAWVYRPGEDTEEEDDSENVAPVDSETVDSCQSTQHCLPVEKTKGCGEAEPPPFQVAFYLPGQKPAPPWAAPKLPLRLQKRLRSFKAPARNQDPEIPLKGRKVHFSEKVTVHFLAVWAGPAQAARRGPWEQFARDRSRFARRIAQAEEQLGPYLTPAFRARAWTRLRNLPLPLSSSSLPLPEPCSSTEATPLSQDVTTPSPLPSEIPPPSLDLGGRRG

[3] = run 1, dose range 1, individual replicate IC50 per panel
[4] = run 2, dose range 1, individual replicate IC50 per panel

Structure (SMILES)	pIC50 [1, 3]	pIC50 [1, 4]	IC50 [2]	pIC50 [2]
COCOCCn1cc(CN2CCS(=O)(=O)N(Cc3ccc(-c4ccc(Cl)c(Cl)c4)cc3)C(C(C)C)C2=O)nn1 (configuration not stated)	4.46	4.74	inactive	–
COc1ccc(-n2nnnc2C(C2CC2)N2CCC(n3c(=O)[nH]c4ccccc43)CC2)cc1 (configuration not stated)	4.23	4.83	inactive	–
NC(=O)C1CCN(C2=C(Cl)C(=O)c3ccccc3C2=O)CC1	4.75	4.78	–	4.76
CC(C)CC(N)c1csc(Nc2ccc(C(=O)c3ccccc3)cc2)n1 (configuration not stated)	4.51	4.53	inactive	–
COc1ccc(-c2cc(C(=O)N(C)Cc3ccc(OC)c(OC)c3OC)c3ccccc3n2)cc1OC	4.87	4.51	inactive	–
CCOc1ccc2[nH]c3c(NCCc4ccc(OC)c(OC)c4)ncnc3c2c1	4.33	< 4.00	inactive	–
CC1=CC2OC3CC4OC(=O)C=CC=CC(C(C)O)OCC(O)C(C)CC(=O)OCC2(CC1O)C4(C)C31CO1 (configuration not stated)	> 6.70	> 6.70	–	> 6.70
CC(Cc1ccccc1)NCCC(c1ccccc1)c1ccccc1 (configuration not stated)	4.70	4.72	–	4.71
CCN(CC)CCOc1ccc(/C(=C(/Cl)c2ccccc2)c2ccccc2)cc1	4.65	4.94	–	4.77
COc1ccccc1NC(=O)Nc1nc(C(N)CCc2ccccc2)cs1 (configuration not stated)	4.91	4.79	–	4.85
CN(CC(=O)Nc1ccc(Cl)c(C(F)(F)F)c1)C(=O)c1cc(-c2ccncc2)nc2ccccc12	4.79	4.80	–	4.79
COc1cccc(-c2nnc3n2N=C(C(C)(C)C)CS3)c1	4.85	4.67	–	4.75
O=C(Cn1ncc(Cl)c(Cl)c1=O)N1CCN(Cc2ccccc2)CC1	4.71	5.07	–	4.85
COc1cc(/C=C/c2ccc3cccc(O)c3n2)ccc1O	< 4.00	< 4.00	> 100 µM (inactive)	–
CCCc1nc(SCC(=O)N2CCCc3ccccc32)c2c(=O)n(C)c(=O)n(C)c2n1	4.31	4.42	inactive	–
C[C@@H](C(=O)Nc1ccc2c(c1)OCCO2)n1c(=O)[nH]c2ccccc2c1=O	4.93	< 4.00	inactive	–
O=C(Nc1cccc(-c2cccc(Cl)c2)c1)C1CCN(C2CCC2)CC1	4.72	4.83	–	4.77
CN(C)CCc1cc2c(c3c1ccc1ccccc13)OCO2	4.77	4.95	–	4.85
Cc1cc(C)c2c(N)c3ccccc3nc2n1	4.73	< 4.00	inactive	–
COc1cccc(Nc2nc(C(N)Cc3ccccc3)cs2)n1 (configuration not stated)	4.69	4.80	–	4.74
Cn1cc(CN2CCCC(C(=O)Nc3ccc(-c4cccc(F)c4)cc3)C2)cn1 (configuration not stated)	4.71	4.53	inactive	–
CC(C)CC(N)c1csc(NC(=O)Nc2ccccc2C(C)(C)C)n1 (configuration not stated)	4.64	4.74	inactive	–
COc1cc(/C=C/c2ccc3cccc(O)c3n2)c(Br)cc1O	4.20	4.37	inactive	–
CC(C)(C)c1ccc(OCCCNCc2ccccc2)cc1	4.54	4.74	inactive	–
Cc1noc(-c2ccc(Cl)cc2)c1C(=O)O/N=C(\N)c1ccc(C(C)(C)C)cc1	4.76	5.04	–	4.88

Structure (SMILES)	pIC50 [1, 3]	pIC50 [1, 4]	IC50 [2]	pIC50 [2]
COc1cc(NC(=O)c2c(F)c(F)c(F)c(F)c2F)c(OC)cc1Cl	4.63	4.80	–	4.70
CC(=O)Nc1ccc(Nc2nc(C)c([N+](=O)[O-])c(Nc3ccccc3)n2)cc1	4.65	< 4.00	inactive	–
CCOC(=O)c1cnc2c(cnn2C)c1NCCCN(C)C	4.72	4.54	inactive	–
COc1ccccc1CN(C)C(=O)c1cc(-c2cccs2)nc2ccccc12	4.85	4.90	–	4.87
COC(=O)C1=C(C(=O)OC)C(C(=O)OC)C(C(=O)OC)C(C(=O)OC)(C(=O)OC)C(C(=O)OC)=C1C(=O)OC (configuration not stated)	4.77	4.97	–	4.86
O=C1NC(=S)N(c2ccccc2F)C(=O)/C1=C\c1cccs1	4.72	4.85	–	4.78
COc1cc(C(=O)/C=C/c2cccnc2)c([N+](=O)[O-])cc1OC	4.71	4.76	–	4.74
CCOC(=O)CN(C(=O)CSc1nnc2c(n1)[nH]c1ccc(F)cc12)c1ccccc1	4.60	4.66	inactive	–
COc1cc2c(cc1OC)CN(c1nc(-c3cccnc3)nc3ccccc13)CC2	4.50	4.20	inactive	–
CN1CCC(N(C)C(=O)/C=C/c2cn(-c3ccccc3)nc2-c2cccs2)CC1	4.73	4.71	–	4.72
CC1(Cc2ccc(Cl)c(Cl)c2)C(=O)Nc2ccc(S(=O)(=O)NC3CCCCC3)cc21 (configuration not stated)	4.74	4.76	–	4.75
O=C(C[n+]1ccc(-c2cc(C(=O)Nc3cccc(C(F)(F)F)c3)c3ccccc3n2)cc1)c1cccc([N+](=O)[O-])c1	4.63	4.86	–	4.73
CCn1cc(CN2CCC(C(=O)Nc3cccc(-c4cccc(Cl)c4)c3)CC2)cn1	4.72	4.84	–	4.77
O=C1NC2C(=CC(O)C(O)C2O)c2cc3c(c(O)c21)OCO3 (configuration not stated)	6.53	> 6.70	–	6.53
CC1(C)C(=O)C=CC(=O)C(C)(C)C(=O)C=CC(=O)C(C)(C)C2=CC=C(O2)C(C)(C)C(=O)C=CC1=O	4.78	4.93	–	4.85
CCN(CC)CCCCNc1ncc2cc(-c3cc(OC)cc(OC)c3)c(NC(=O)NC(C)(C)C)nc2n1	4.68	4.68	inactive	–
O=S(=O)(CC(CN1CCCCC1)N1CCCCC1)c1ccccc1 (configuration not stated)	4.42	4.74	inactive	–
CCOC(=O)C1=C(COCCN)NC(C)=C(C(=O)OC)C1c1ccccc1Cl (configuration not stated)	4.72	4.92	–	4.81
O=S(=O)(c1cccc(F)c1)N1CCN(c2nc(-c3cccnc3)nc3ccccc23)CC1	4.99	4.80	–	4.89
CCc1nccn1C(=O)c1cnn2c(C(F)F)cc(-c3ccc(C)cc3)nc12	4.73	4.81	–	4.76
N#Cc1c(N)nc(SCc2ccncc2)c(C#N)c1-c1cccs1	4.67	4.89	–	4.77
Cc1cc(C=C2C(=O)c3ccccc3C2=O)c(C)n1-c1ccccc1	4.40	< 4.00	inactive	–
COc1ccc2sc3cccc(NCCN(C)C)c3c(=O)c2c1	4.67	< 4.00	inactive	–
CCCc1ccc(C(=O)O/N=C(\N)c2ccccn2)cc1	4.44	4.78	inactive	–
